According to ChEMBL document CHEMBL1212811, “Chemical phylogenetics of histone deacetylases” (Nat Chem Biol, 2010):
Where a name gives a salt, the structure may show the parent alone. The source made the active and inactive calls. Peptide text beside a SMILES is read from it. * marks the point of attachment. AMC = Cc1cc(=O)oc2cc(N*)ccc12; Tfa = O=C(C(F)(F)F)*

How the values were obtained:
[1] = target: T1, Protein deacetylase HDAC6 (Homo sapiens) (UniProt Q9UBN7); assay: Inhibition of HDAC6 in human Jurkat cells assessed as hyperacetylation of alpha-tubulin after 24 hrs by immunoblot method; type: cell-based
T1 sequence (whole entry): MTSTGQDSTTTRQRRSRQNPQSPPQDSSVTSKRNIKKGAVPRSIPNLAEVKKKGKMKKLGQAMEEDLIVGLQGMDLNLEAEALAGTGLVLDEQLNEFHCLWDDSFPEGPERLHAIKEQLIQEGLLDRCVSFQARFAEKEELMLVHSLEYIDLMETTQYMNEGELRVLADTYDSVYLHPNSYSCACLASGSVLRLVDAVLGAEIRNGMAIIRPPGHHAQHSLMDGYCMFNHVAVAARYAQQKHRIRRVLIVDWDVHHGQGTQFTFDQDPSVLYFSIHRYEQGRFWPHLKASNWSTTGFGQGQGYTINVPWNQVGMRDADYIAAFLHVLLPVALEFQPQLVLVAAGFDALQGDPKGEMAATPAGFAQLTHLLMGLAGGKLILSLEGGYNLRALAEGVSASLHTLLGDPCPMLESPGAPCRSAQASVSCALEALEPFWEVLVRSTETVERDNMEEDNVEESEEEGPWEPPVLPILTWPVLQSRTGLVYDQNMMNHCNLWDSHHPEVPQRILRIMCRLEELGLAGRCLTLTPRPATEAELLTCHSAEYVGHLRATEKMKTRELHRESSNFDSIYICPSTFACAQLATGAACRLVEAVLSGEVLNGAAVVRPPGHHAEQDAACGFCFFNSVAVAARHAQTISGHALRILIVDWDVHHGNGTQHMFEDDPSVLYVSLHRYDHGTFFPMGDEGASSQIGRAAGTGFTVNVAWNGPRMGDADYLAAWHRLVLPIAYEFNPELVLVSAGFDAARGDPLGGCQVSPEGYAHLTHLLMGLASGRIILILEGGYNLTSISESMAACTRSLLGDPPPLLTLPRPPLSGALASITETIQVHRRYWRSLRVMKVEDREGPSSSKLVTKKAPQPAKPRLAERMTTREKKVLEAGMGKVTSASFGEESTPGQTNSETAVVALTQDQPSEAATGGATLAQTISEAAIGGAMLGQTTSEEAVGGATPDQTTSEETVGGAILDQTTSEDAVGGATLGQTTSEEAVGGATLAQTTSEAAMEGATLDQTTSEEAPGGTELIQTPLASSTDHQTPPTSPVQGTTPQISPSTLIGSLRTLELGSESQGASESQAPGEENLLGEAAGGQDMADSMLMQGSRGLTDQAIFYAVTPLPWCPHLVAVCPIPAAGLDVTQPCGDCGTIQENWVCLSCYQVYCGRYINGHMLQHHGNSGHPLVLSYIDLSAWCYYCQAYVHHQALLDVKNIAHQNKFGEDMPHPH

[2] = target: T2, Histone deacetylase 7 (Homo sapiens) (UniProt Q8WUI4); assay: Activity of HDAC7 at 10 uM
T2 sequence (whole entry): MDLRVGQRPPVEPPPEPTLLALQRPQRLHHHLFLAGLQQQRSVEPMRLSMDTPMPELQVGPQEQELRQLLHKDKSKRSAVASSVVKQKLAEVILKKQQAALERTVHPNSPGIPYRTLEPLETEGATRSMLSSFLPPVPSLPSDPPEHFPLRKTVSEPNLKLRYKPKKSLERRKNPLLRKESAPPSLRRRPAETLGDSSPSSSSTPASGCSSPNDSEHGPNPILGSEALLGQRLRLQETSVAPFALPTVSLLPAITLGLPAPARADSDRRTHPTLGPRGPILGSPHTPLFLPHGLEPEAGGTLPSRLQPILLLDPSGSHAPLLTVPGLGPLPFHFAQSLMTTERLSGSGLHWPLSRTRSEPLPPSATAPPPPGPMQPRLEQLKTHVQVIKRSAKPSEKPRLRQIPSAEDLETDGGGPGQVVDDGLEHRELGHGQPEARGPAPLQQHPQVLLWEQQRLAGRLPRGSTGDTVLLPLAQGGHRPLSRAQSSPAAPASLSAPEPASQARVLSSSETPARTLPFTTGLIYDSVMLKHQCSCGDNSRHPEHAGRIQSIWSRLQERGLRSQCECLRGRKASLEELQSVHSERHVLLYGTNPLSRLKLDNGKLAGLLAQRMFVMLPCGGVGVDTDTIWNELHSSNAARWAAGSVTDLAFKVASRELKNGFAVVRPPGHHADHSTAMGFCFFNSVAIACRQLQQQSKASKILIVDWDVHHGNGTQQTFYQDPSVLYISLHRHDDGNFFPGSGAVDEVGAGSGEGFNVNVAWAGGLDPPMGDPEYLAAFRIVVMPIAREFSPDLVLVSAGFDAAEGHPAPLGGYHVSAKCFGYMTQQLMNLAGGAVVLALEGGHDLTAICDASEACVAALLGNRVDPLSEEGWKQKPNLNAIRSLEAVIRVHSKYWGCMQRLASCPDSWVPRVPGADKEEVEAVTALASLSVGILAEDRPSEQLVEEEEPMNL

[3] = target: Histone deacetylase 4 (Homo sapiens) (UniProt P56524); assay: Activity of HDAC4 at 10 uM
Histone deacetylase 4 (Homo sapiens), sequence (P56524 whole entry): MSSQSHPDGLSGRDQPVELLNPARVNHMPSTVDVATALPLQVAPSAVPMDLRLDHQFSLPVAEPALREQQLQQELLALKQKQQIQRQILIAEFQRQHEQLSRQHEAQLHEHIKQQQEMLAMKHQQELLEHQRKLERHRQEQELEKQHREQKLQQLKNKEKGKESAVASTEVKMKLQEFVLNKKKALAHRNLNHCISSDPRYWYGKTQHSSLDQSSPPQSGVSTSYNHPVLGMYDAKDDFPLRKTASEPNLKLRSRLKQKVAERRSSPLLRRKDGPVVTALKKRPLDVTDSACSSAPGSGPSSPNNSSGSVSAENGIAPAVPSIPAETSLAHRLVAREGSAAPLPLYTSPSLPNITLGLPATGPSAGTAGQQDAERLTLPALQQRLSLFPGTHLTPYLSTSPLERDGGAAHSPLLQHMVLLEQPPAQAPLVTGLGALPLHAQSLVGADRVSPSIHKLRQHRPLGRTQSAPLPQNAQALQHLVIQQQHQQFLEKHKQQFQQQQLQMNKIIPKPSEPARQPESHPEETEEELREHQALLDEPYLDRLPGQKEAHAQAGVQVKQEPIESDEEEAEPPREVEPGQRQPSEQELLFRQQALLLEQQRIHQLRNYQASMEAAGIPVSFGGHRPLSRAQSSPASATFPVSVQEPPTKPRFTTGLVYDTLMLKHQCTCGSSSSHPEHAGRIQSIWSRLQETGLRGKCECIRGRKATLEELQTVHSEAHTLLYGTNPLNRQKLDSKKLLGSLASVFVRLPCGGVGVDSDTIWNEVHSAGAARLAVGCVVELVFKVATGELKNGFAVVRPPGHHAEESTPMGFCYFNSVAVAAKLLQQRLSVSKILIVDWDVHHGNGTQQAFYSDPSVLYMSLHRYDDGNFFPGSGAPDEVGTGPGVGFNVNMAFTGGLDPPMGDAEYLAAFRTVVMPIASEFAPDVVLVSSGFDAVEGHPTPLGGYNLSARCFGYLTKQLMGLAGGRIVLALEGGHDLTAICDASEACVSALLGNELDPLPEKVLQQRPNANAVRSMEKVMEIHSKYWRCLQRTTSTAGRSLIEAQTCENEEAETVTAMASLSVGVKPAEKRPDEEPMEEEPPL

[4] = target: Histone deacetylase 5 (Homo sapiens) (UniProt Q9UQL6); assay: Activity of HDAC5 at 10 uM
Histone deacetylase 5 (Homo sapiens), sequence (Q9UQL6 whole entry): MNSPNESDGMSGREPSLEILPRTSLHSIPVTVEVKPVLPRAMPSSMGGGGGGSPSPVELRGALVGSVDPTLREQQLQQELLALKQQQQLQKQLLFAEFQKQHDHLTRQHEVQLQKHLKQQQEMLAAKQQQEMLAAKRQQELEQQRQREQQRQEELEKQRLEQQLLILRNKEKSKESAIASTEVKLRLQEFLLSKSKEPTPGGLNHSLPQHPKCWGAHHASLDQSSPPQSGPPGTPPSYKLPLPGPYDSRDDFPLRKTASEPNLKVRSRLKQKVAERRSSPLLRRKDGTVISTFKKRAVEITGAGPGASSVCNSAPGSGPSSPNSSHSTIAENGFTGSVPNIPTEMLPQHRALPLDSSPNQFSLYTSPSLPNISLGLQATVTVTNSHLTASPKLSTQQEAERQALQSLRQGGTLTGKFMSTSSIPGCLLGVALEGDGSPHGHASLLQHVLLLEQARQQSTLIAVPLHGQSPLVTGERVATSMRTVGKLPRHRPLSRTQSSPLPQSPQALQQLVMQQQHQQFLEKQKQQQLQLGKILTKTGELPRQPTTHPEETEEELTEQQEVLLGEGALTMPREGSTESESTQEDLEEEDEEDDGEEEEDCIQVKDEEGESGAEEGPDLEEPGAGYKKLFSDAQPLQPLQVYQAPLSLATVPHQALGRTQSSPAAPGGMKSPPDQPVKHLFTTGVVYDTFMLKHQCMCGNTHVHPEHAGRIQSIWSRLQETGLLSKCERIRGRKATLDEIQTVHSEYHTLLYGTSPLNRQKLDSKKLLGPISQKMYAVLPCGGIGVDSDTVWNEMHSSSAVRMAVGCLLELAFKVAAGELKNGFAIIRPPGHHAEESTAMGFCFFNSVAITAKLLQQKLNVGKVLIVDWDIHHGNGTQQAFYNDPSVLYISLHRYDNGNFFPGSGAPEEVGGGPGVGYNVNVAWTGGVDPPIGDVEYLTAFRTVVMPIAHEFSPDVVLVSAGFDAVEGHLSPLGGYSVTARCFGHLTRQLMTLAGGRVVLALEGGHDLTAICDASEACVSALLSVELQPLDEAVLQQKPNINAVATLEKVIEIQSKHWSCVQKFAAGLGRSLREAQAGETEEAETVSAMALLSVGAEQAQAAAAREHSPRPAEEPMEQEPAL

[5] = target: T3, Histone deacetylase 8 (Homo sapiens) (UniProt Q9BY41); assay: Activity of HDAC8 at 10 uM
T3 sequence (whole entry): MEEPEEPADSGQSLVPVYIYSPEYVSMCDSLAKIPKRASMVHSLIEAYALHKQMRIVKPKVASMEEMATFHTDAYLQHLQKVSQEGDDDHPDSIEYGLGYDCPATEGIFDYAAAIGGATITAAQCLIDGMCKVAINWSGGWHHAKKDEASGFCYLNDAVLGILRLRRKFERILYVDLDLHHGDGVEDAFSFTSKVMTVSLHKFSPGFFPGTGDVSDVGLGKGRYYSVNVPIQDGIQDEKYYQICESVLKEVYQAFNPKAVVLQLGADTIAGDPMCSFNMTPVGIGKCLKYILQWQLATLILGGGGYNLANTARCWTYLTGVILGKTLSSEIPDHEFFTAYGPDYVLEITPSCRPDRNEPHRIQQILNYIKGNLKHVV

[6] = target: Histone deacetylase 9 (Homo sapiens) (UniProt Q9UKV0); assay: Activity of HDAC9 at 10 uM
Histone deacetylase 9 (Homo sapiens), sequence (Q9UKV0 whole entry): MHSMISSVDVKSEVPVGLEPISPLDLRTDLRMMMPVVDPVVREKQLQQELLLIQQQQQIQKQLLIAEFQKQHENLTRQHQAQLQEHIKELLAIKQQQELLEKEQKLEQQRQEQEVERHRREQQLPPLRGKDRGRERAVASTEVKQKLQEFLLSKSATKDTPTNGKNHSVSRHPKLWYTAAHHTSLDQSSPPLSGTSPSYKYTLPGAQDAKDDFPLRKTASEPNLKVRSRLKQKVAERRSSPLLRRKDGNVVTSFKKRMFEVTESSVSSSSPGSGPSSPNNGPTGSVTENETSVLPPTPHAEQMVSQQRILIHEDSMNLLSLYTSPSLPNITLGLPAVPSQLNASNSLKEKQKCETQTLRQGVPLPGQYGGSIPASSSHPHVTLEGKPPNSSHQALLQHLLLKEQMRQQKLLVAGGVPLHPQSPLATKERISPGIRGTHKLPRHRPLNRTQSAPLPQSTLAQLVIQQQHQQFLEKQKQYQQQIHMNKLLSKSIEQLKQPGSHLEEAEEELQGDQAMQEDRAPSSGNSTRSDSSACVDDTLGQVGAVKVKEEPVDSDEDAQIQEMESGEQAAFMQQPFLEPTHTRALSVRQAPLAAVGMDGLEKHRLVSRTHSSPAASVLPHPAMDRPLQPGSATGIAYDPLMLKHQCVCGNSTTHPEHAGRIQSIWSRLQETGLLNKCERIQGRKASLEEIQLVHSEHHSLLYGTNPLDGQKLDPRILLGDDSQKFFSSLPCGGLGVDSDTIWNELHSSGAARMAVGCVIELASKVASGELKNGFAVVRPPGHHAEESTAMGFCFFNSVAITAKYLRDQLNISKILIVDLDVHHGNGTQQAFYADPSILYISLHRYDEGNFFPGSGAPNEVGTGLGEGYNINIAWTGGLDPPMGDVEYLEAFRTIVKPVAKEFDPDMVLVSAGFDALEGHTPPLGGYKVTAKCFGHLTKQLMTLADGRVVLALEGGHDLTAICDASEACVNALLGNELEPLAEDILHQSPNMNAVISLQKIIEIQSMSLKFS

O=C(/C=C/c1ccc(C(=O)N/N=C/c2ccc(O)c(O)c2O)cc1)NO
active: inhibition [1] Dose-dependent effect

CC(=O)N[C@@H](CC(C)C)C(=O)NCC(=O)N[C@@H](CCCCNC(=O)C(F)(F)F)C(=O)Nc1ccc2c(C)cc(=O)oc2c1 (Ac-Leu-Gly-Lys(Tfa)-{AMC})
active: Activity [2] | Activity [3] | Activity [4] | Activity [5] | Activity [6]
